Patent US20230085307A1, “PYRIDAZINONE COMPOUND AND HERBICIDE” (NISSAN CHEMICAL CORPORATION, priority 2019, published 2023)

Columns and labels:
[1] = test system: late watergrass; experiment: Test Example 1: herbicidal activity, application before weed generation under submerged conditions (Table 16, symbol A); assay type: in vivo, late watergrass (Echinochloa oryzicola); details: 320 g/ha applied herbicide
How it was run: (§1)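 Alluvial soil was flooded to 4 cm depth, weed seeds were sown mixed and 2.5-leaf rice seedlings were transplanted. On sowing day, the compound's emulsion, diluted in water to a set dose, was applied to the water surface. Plants grew at 25–30 °C and were scored 0–5 after three weeks.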

[2] = test system: Japanese bulrush; experiment: Test Example 1: herbicidal activity, application before weed generation under submerged conditions (Table 16, symbol B); assay type: in vivo, Japanese bulrush (Schoenoplectus juncoides); details: 320 g/ha applied herbicide
How it was run: as §1

[3] = test system: oval-leafed pondweed; experiment: Test Example 1: herbicidal activity, application before weed generation under submerged conditions (Table 16, symbol C); assay type: in vivo, oval-leafed pondweed (Monochoria vaginalis); details: 320 g/ha applied herbicide
How it was run: as §1

[4] = test system: barnyard grass; experiment: Test Example 3: herbicidal effect by foliage application, Wagner pot (Table 18, symbol H); assay type: in vivo, barnyard grass (Echinochloa crus-galli); details: 320 g/ha
How it was run: (§2)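 Plants were sown in alluvial soil held under 0.1–0.5 cm standing water and grown 14 days in a greenhouse at 25–30 °C. An emulsifiable formulation, water-diluted to the set dose, was then sprayed onto the foliage, and effects were scored three weeks later using previously defined criteria.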

[5] = test system: Chinese sprangletop; experiment: Test Example 3: herbicidal effect by foliage application, Wagner pot (Table 18, symbol D); assay type: in vivo, chinese sprangletop (Leptochloa chinensis); details: 320 g/ha
How it was run: as §2

[6] = test system: rice flat sedge; experiment: Test Example 3: herbicidal effect by foliage application, Wagner pot (Table 18, symbol E); assay type: in vivo, rice flat sedge (Cyperus iria); details: 320 g/ha
How it was run: as §2

[7] = test system: southern crabgrass; experiment: Test Example 4: herbicidal effect by soil treatment (Table 19, symbol F); assay type: in vivo, southern crabgrass (Digitaria ciliaris); details: 320 g/ha
How it was run: (§3)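 Scoring uses the grading scale of an earlier test, three weeks post-application. Treatment consists of spraying a diluted emulsion formulation across the surface of sterilized diluvial soil in which seeds are buried near 1.5 cm deep; boxes are kept in a greenhouse between 25° C. and 30° C.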

[8] = test system: green foxtail; experiment: Test Example 4: herbicidal effect by soil treatment (Table 19, symbol G); assay type: in vivo, green foxtail (Setaria viridis); details: 320 g/ha
How it was run: as §3

[9] = test system: barnyard grass; experiment: Test Example 4: herbicidal effect by soil treatment (Table 19, symbol H); assay type: in vivo, barnyard grass (Echinochloa crus-galli); details: 320 g/ha
How it was run: as §3

[10] = test system: wild oat; experiment: Test Example 4: herbicidal effect by soil treatment (Table 19, symbol I); assay type: in vivo, wild oat (Avena fatua); details: 320 g/ha
How it was run: as §3

[11] = test system: blackgrass; experiment: Test Example 4: herbicidal effect by soil treatment (Table 19, symbol J); assay type: in vivo, blackgrass (Alopecurus myosuroides); details: 320 g/ha
How it was run: as §3

[12] = test system: Italian ryegrass; experiment: Test Example 4: herbicidal effect by soil treatment (Table 19, symbol K); assay type: in vivo, Italian ryegrass (Lolium multiflorum); details: 320 g/ha
How it was run: as §3

[13] = test system: windgrass; experiment: Test Example 4: herbicidal effect by soil treatment (Table 19, symbol L); assay type: in vivo, windgrass (Apera spica-venti); details: 320 g/ha
How it was run: as §3

[14] = test system: velvetleaf; experiment: Test Example 4: herbicidal effect by soil treatment (Table 19, symbol M); assay type: in vivo, velvetleaf (Abutilon theophrasti); details: 320 g/ha
How it was run: as §3

[15] = test system: redroot pigweed; experiment: Test Example 4: herbicidal effect by soil treatment (Table 19, symbol N); assay type: in vivo, redroot pigweed (Amaranthus retroflexus); details: 320 g/ha
How it was run: as §3

[16] = test system: lambsquarters; experiment: Test Example 4: herbicidal effect by soil treatment (Table 19, symbol O); assay type: in vivo, lambsquarters (Chenopodium album); details: 320 g/ha
How it was run: as §3

[17] = test system: chickweed; experiment: Test Example 4: herbicidal effect by soil treatment (Table 19, symbol P); assay type: in vivo, common chickweed (Stellaria media); details: 320 g/ha
How it was run: as §3

[18] = test system: persian speedwell; experiment: Test Example 4: herbicidal effect by soil treatment (Table 19, symbol R); assay type: in vivo, Persian speedwell (Veronica persica); details: 320 g/ha
How it was run: as §3

[19] = test system: southern crabgrass; experiment: Test Example 5: herbicidal effect by foliage application, plastic box (Table 20, symbol F); assay type: in vivo, southern crabgrass (Digitaria ciliaris); details: foliage application, 320 g/ha, 3 weeks after application
How it was run: (§4)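 Post-emergence foliar test in sterilized diluvial soil. Compound applied as water-diluted emulsion at a predetermined rate to 14-day-old plants; evaluation at three weeks.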

[20] = test system: green foxtail; experiment: Test Example 5: herbicidal effect by foliage application, plastic box (Table 20, symbol G); assay type: in vivo, green foxtail (Setaria viridis); details: foliage application, 320 g/ha, 3 weeks after application
How it was run: as §4

[21] = test system: barnyard grass; experiment: Test Example 5: herbicidal effect by foliage application, plastic box (Table 20, symbol H); assay type: in vivo, barnyard grass (Echinochloa crus-galli); details: foliage application, 320 g/ha, 3 weeks after application
How it was run: as §4

[22] = test system: wild oat; experiment: Test Example 5: herbicidal effect by foliage application, plastic box (Table 20, symbol I); assay type: in vivo, wild oat (Avena fatua); details: foliage application, 320 g/ha, 3 weeks after application
How it was run: as §4

[23] = test system: blackgrass; experiment: Test Example 5: herbicidal effect by foliage application, plastic box (Table 20, symbol J); assay type: in vivo, blackgrass (Alopecurus myosuroides); details: foliage application, 320 g/ha, 3 weeks after application
How it was run: as §4

[24] = test system: Italian ryegrass; experiment: Test Example 5: herbicidal effect by foliage application, plastic box (Table 20, symbol K); assay type: in vivo, Italian ryegrass (Lolium multiflorum); details: foliage application, 320 g/ha, 3 weeks after application
How it was run: as §4

[25] = test system: windgrass; experiment: Test Example 5: herbicidal effect by foliage application, plastic box (Table 20, symbol L); assay type: in vivo, windgrass (Apera spica-venti); details: foliage application, 320 g/ha, 3 weeks after application
How it was run: as §4

[26] = test system: velvetleaf; experiment: Test Example 5: herbicidal effect by foliage application, plastic box (Table 20, symbol M); assay type: in vivo, velvetleaf (Abutilon theophrasti); details: foliage application, 320 g/ha, 3 weeks after application
How it was run: as §4

[27] = test system: lambsquarters; experiment: Test Example 5: herbicidal effect by foliage application, plastic box (Table 20, symbol O); assay type: in vivo, lambsquarters (Chenopodium album); details: foliage application, 320 g/ha, 3 weeks after application
How it was run: as §4

[28] = test system: persian speedwell; experiment: Test Example 5: herbicidal effect by foliage application, plastic box (Table 20, symbol R); assay type: in vivo, Persian speedwell (Veronica persica); details: foliage application, 320 g/ha, 3 weeks after application
How it was run: as §4

SMILES	Herbicidal effect on A: late watergrass (grade 0-5) [1]	Herbicidal effect on B: Japanese bulrush (grade 0-5) [2]	Herbicidal effect on C: oval-leafed pondweed (grade 0-5) [3]	herbicidal effect on H (barnyard grass), rating 0-5 [4]	herbicidal effect on D (Chinese sprangletop), rating 0-5 [5]	herbicidal effect on E (rice flat sedge), rating 0-5 [6]	herbicidal effect rating, F: southern crabgrass [7]	herbicidal effect rating, G: green foxtail [8]	herbicidal effect rating, H: barnyard grass [9]	herbicidal effect rating, I: wild oat [10]	herbicidal effect rating, J: blackgrass [11]	herbicidal effect rating, K: Italian ryegrass [12]	herbicidal effect rating, L: windgrass [13]	herbicidal effect rating, M: velvetleaf [14]	herbicidal effect rating, N: redroot pigweed [15]	herbicidal effect rating, O: lambsquarters [16]	herbicidal effect rating, P: chickweed [17]	herbicidal effect rating, R: persian speedwell [18]	effect on southern crabgrass (F) [19]	effect on green foxtail (G) [20]	also measured
Cc1nn(C)c(=O)c(-c2c(-c3ccc(F)cc3)sc3ccc(F)cc23)c1OC(=O)N1CCOCC1 [2-007]	2 (Herbicidal rate of 20% or more and less than 40%)	0 (Herbicidal rate of 5% or less (almost no effect))	0 (Herbicidal rate of 5% or less (almost no effect))	1 (Herbicidal rate of 5% or more and less than 20%)	3 (Herbicidal rate of 40% or more and less than 70%)	3 (Herbicidal rate of 40% or more and less than 70%)	1 (Herbicidal rate of 5% or more and less than 20%)	2 (Herbicidal rate of 20% or more and less than 40%)	0 (Herbicidal rate of 5% or less (almost no effect))	0 (Herbicidal rate of 5% or less (almost no effect))	0 (Herbicidal rate of 5% or less (almost no effect))	0 (Herbicidal rate of 5% or less (almost no effect))	0 (Herbicidal rate of 5% or less (almost no effect))	0 (Herbicidal rate of 5% or less (almost no effect))	2 (Herbicidal rate of 20% or more and less than 40%)	0 (Herbicidal rate of 5% or less (almost no effect))	0 (Herbicidal rate of 5% or less (almost no effect))	0 (Herbicidal rate of 5% or less (almost no effect))	0 (Herbicidal rate of 5% or less (almost no effect))	0 (Herbicidal rate of 5% or less (almost no effect))	effect on barnyard grass (H) [21]: 0 (Herbicidal rate of 5% or less (almost no effect)); effect on wild oat (I) [22]: 0 (Herbicidal rate of 5% or less (almost no effect)); effect on blackgrass (J) [23]: 0 (Herbicidal rate of 5% or less (almost no effect)); effect on Italian ryegrass (K) [24]: 0 (Herbicidal rate of 5% or less (almost no effect)); effect on windgrass (L) [25]: 0 (Herbicidal rate of 5% or less (almost no effect)); effect on velvetleaf (M) [26]: 0 (Herbicidal rate of 5% or less (almost no effect)); effect on lambsquarters (O) [27]: 0 (Herbicidal rate of 5% or less (almost no effect)); effect on persian speedwell (R) [28]: 1 (Herbicidal rate of 5% or more and less than 20%)
Cc1nn(C)c(=O)c(-c2c(-c3ccc(C(C)C)cc3)sc3ccc(F)cc23)c1O [2-014]	3 (Herbicidal rate of 40% or more and less than 70%)	0 (Herbicidal rate of 5% or less (almost no effect))	0 (Herbicidal rate of 5% or less (almost no effect))	5 (Herbicidal rate of 90% or more (almost completely withered))	5 (Herbicidal rate of 90% or more (almost completely withered))	5 (Herbicidal rate of 90% or more (almost completely withered))	0 (Herbicidal rate of 5% or less (almost no effect))	2 (Herbicidal rate of 20% or more and less than 40%)	4 (Herbicidal rate of 70% or more and less than 90%)	0 (Herbicidal rate of 5% or less (almost no effect))	0 (Herbicidal rate of 5% or less (almost no effect))	4 (Herbicidal rate of 70% or more and less than 90%)	3 (Herbicidal rate of 40% or more and less than 70%)	3 (Herbicidal rate of 40% or more and less than 70%)	5 (Herbicidal rate of 90% or more (almost completely withered))	5 (Herbicidal rate of 90% or more (almost completely withered))	4 (Herbicidal rate of 70% or more and less than 90%)	5 (Herbicidal rate of 90% or more (almost completely withered))	5 (Herbicidal rate of 90% or more (almost completely withered))	5 (Herbicidal rate of 90% or more (almost completely withered))	effect on barnyard grass (H) [21]: 5 (Herbicidal rate of 90% or more (almost completely withered)); effect on wild oat (I) [22]: 2 (Herbicidal rate of 20% or more and less than 40%); effect on blackgrass (J) [23]: 4 (Herbicidal rate of 70% or more and less than 90%); effect on Italian ryegrass (K) [24]: 5 (Herbicidal rate of 90% or more (almost completely withered)); effect on windgrass (L) [25]: 5 (Herbicidal rate of 90% or more (almost completely withered)); effect on velvetleaf (M) [26]: 5 (Herbicidal rate of 90% or more (almost completely withered)); effect on lambsquarters (O) [27]: 5 (Herbicidal rate of 90% or more (almost completely withered)); effect on persian speedwell (R) [28]: 5 (Herbicidal rate of 90% or more (almost completely withered))
